Patent US5288723A, “A composition and a method of using veratridine and epinephrine as a local anesthetic” (priority 1991, dated 1994)
Entries after “also recorded” stand apart in the source; their conditions may differ. Like-named read-outs stand apart in the source and are kept apart here.

What was measured:
[1] = system: B-fibers of rabbit vagus nerve; experiment: Extracellular recording of compound action potentials (APc), desheathed vagus nerve, B-fibers; parameters: species or system New Zealand white rabbit; settings: for inhibition at 0.5 µM / activity at 0.5 µM: Oryctolagus cuniculus, 0.5 μM VTD; for inhibition at 0.5 µM: 70 min, 50 Hz, mean ± SEM; for activity at 0.5 µM: read-out: Amplitude of single APc elevation relative to amplitude at beginning of VTD exposure
Protocol: (§1) Adult male New Zealand white rabbits (3±0.5 kg) were pretreated intramuscularly with a mixture of ketamine (200 mg), xylazine (20 mg) and atropine (0.4 mg) for sedation. Ten minutes after this treatment, the animals were anesthetized with diethyl ether. After cessation of respiration, a longitudinal skin incision was made, and the cervical portion of both vagus nerves was dissected. The vagus nerves were temporarily stored at room temperature (22° C.) in a beaker containing modified HEPES Liley (HL) solution stirred constantly by aeration with a mixture of 95% oxygen and 5% carbon dioxide.
(§2) The modified HL solution used for bathing the nerve and subsequent drug perfusion consisted of (in mM): NaCl, 118.0; KCl, 5.0; CaCl2 2H2 0, 2.0; MgCl2 6H2 0, 1.0; α-D(+)-glucose, 11.0; NaHC03, 25.0; and N-2-hydroxy-ethylpiperazine-N-2-ethanesulfonic acid (HEPES) buffer, 5.0 mM. The pH was adjusted to 7.4±0.05 by addition of 1 N NaOH. The perfusion solution was bubbled with a gas mixture of 95% oxygen and 5% carbon dioxide at a vigorous rate just before flowing onto the nerve. The pH was stabilized by the HEPES buffer and maintained at 7.4.
(§3) VTD free base (no. V-5754, lot 58F-7828, Sigma, St. Louis, Mo.) was stored in a desiccator below 0° C. and was used to prepare a 2 mM stock solution in dimethyl sulfoxide [DMSO], Fisher Scientific, lot 861316), which also was stored at below 0° C. VTD, a steroidal alkaloid (FIG. 2A) that is produced by certain lilies, has a solubility limited to approximately 10^-3 M in aqueous slat solutions [Kupchan and By, "The Veratrum Group," in Alkaloids, Vol. 10, Manske, R.H.F. (ed.), New York, Academic Press (1968), pp. 193-285]. The stock VTD solution was diluted to final concentrations of 0.2-10 μM by the addition of HL. The maximum equivalent content of DMSO is 0.5%, and in three control experiments we detected no change in electrophysiologic behavior with 1% DMSO.
(§4) The nerves were cleaned and desheathed by microdissection before mounting in an airtight chamber (FIG. 2B) [Gissen et al., Anesthesiology 53:467-474 (1980)]. Petroleum jelly (White Petrolatum, Denison Laboratories) seals separated a central, 11-mm length of the nerve from the lateral pools, used for stimulating and recording with electrodes made of platinum wire. The central section of the chamber (volume 0.25 ml) was perfused with HL solution at 0.5 ml.min.^-1. The lateral pools containing the moistened ends of the nerves adsorbed to the electrodes were filled with paraffin oil. The APc s were propagated over 21 mm, from the stimulating to the recording electrodes, with the proximal recording electrodc located 4.5 mm from the edge of the central, drug exposure chamber. Thus, measured APc s were conducted in nerve exposed to drug for half of the conduction pathway, and had been conducting through drug-free medium over a distance containing at least two or three nodes of Ranvier (in the fastest-conducting fibers), before reaching the recording electrodes.
(§5) The signal from the nerve was amplified 50 times (model AK 475 operational amplifier, Metametrics, Carlisle, Mass.) and passed to the oscilloscope preamplifiers (model 5A 22N, Tektronix). The preparation was not considered acceptable unless the APc signals from the nerve exceeded 1.5 mV for A-fibers, 0.5 mV for B-fibers, and 0.3 mV for C-fibers.
(§6) Each nerve was exposed to only one VTD concentration, and each concentration was tested in four or five separate nerves, except in tie sheathed nerves, for which only two nerves were used. The temperature was 20°-22° C.
The standard protocol used for testing the action of VTD was to record the APc elevations in control HL solution for 30-60 min. before adding VTD; for 60-75 min. during VTD application; and for 60-75 min. after replacement with VTD-free HL. […]

[2] = system: rabbit vagus nerve; experiment: Extracellular recording of compound action potentials (APc), vagus nerve as a whole; parameters: species or system New Zealand white rabbit
Protocol: as §1, §2, §3
as §4, with “The APc s were propagated over 21 mm, from the stimulating to the recording electrodes, with the proximal recording electrodc located 4.5 mm from the edge of the central, drug exposure chamber.” left out, “electrodes. […]” for “electrodes.”

[3] = system: rat sciatic nerve; experiment: Sensory block of rat sciatic nerve in vivo (nocifensive withdrawal reflex to pinch of the foot pad); parameters: species or system Male Sprague-Dawley rats; settings: for fraction block, SENSORY / duration, SENSORY / onset, SENSORY: 0.1 ml; for duration, SENSORY / onset, SENSORY: mean ± SEM
Protocol: (§7) Male Sprague-Dawley rats (200-250 g) were divided into 4 groups of 10 each. 0.1 ml of VTD alone at 0.2, 0.5 or 0.7 mM or vehicle (saline) was injected at the depression between the femoral head and the hip. The same animals were injected with VTD with epinephrine (EPI, 1:200,000) one week later, using the previously uninjected leg. Motor and sensory functions were rated by the respective monitoring of toe curling and/or foot dragging, and by testing the nocifensive withdrawal reflex to pinch of the foot pad of the injected hindlimb. Saline alone affected neither function.

[4] = system: vagus nerve with intact sheath (C-fibers); experiment: Extracellular recordings from sheathed nerves; parameters: species or system rabbit
Protocol: as §4, §5, §6
We tested the ability of VTD to penetrate the tissues ensheathing the vagus nerve. Nerves with intact sheaths were arranged in the same extracellular recording chamber as had been used for the desheathed nerve studies just described. Because of the electrical isolating qualities of the sheath, stimulus requirements are greater and the recorded APC s are smaller, but have the same latency from stimulation as in the desheathed nerves. […] However, the onset of the effect was much slower and the VTD dose requirement much higher: 2 μM VTD took approximately 30 min. to affect the C-fibers detectably, and 10 μM took approximately 15 min. This is expected in a lipophilic base for which more than 90%, on average, of the drug molecules are ionized [Kupchan and By, "The Veratrum Group," in Alkaloids, Vol. 10, Manske, R.H.F. (ed.), New York, Academic Press (1968), pp. 193-285].

[5] = system: rat sciatic nerve; experiment: Motor block of rat sciatic nerve in vivo (toe curling and/or foot dragging); parameters: species or system Male Sprague-Dawley rats; settings: for duration, MOTOR / onset, MOTOR: mean ± SEM
Protocol: as §7

COc1ccc(C(=O)OC2CCC3(C)C4CCC5C6(O)CC(O)C7(O)C(CN8CC(C)CCC8C7(C)O)C6(O)CC53OC24O)cc1OC (stereo not shown) [VTD, veratridine]
Reversal of use-dependent effects on B-fibers by washing ([1]; 75 min. of washing with drug-free HL): not abolished completely | Single-stimulus APc after VTD compared with no-VTD controls ([1]; B-fibers, 0.5 μM, 60 min. in VTD, P>0.05): no significant difference | Reversal of use-dependent depression by washing ([1]; B-fibers, VTD-free HL wash): did not reverse | inhibition at 0.5 µM ([1]; B-fibers, after 70 min. in VTD, P < 0.001 vs control, read-out: Percent inhibition of the tenth APc in a train compared to the first, VTD): 55 ± 2.8% | inhibition at 0.5 µM ([1]; B-fibers, after 70 min. wash, read-out: Percent inhibition of the tenth APc in a train compared to the first, HL (Wash)): 52.6 ± 3.7% | activity at 0.5 µM ([1]; B-fibers, during VTD exposure): 105 ± 23% | activity at 0.5 µM ([1]; B-fibers, wash period): 108 ± 31% | Fiber preference of impulse inhibition ([2]; VTD alone, use-dependent): highly preferential for C-fibers | Time to recover from VTD-induced use-dependent effects ([2]; after termination of rapid stimulation): tens of seconds | Effect of VTD added to a nerve during recovery from bupivacaine ([2]; residual bupivacaine block): potentiated rather than antagonized the residual block | Effect on impulses conducted in response to a single stimulus ([2]; single stimuli, 0.5 μM): only a small effect; also recorded: unaffected | Frequency of sensory block (summary) ([3]; VTD alone, vs motor block): less frequently | fraction block, SENSORY ([3]; [VTD] 0.2 mM): 1/10 | duration, SENSORY ([3]; [VTD] 0.2 mM): 51 min | onset, SENSORY ([3]; [VTD] 0.2 mM): 13 min | fraction block, SENSORY ([3]; [VTD] 0.5 mM): 2/10 | duration, SENSORY ([3]; [VTD] 0.5 mM): 224 ± 44 min | onset, SENSORY ([3]; [VTD] 0.5 mM): 3 ± 1 min | fraction block, SENSORY ([3]; [VTD] 0.7 mM): 4/10 | duration, SENSORY ([3]; [VTD] 0.7 mM): 115 ± 1 min | onset, SENSORY ([3]; [VTD] 0.7 mM): 10 ± 2 min | Block of nocifensive reflexes compared with bupivacaine and lidocaine ([3]; rat sciatic nerve): blocked less predictably | Time to affect the C-fibers detectably, sheathed nerve ([4]; 2 μM VTD): approximately 30 min. | Time to affect the C-fibers detectably, sheathed nerve ([4]; 10 μM VTD): approximately 15 min. | Use-dependent reduction as % of that achieved at steady state on a desheathed nerve by 0.2 μm VTD ([4]; 10 Hz, 60-min. exposure to 10 μm VTD): approximately 30% | C-fiber elevation / APc inhibition in sheathed nerves ([4]; intact sheath): inhibited selectively; also recorded: progressively inhibited in a use-dependent fashion | Reduction of rate of penetration into the nerve by the sheath ([4]; sheathed vs desheathed nerve): at least 50 fold | Rate of VTD action with intact nerve sheath ([4]; vs desheathed nerves): far less than in desheathed nerves | Duration of steady-state effect in drug-free solution ([4]; wash-out period after 75 min. exposure, both nerves tested, up to): up to 3 h | Onset of motor block (summary) ([5]; VTD alone, 0.2-0.7 mM): 6 to 12 min | duration, MOTOR ([5]; [VTD] 0.2 mM, 0.1 ml): 124 ± 19 min | fraction block, MOTOR ([5]; [VTD] 0.5 mM, 0.1 ml): 10/10 | duration, MOTOR ([5]; [VTD] 0.5 mM, 0.1 ml): 211 ± 31 min | onset, MOTOR ([5]; [VTD] 0.5 mM, 0.1 ml): 10 ± 3 min | duration, MOTOR ([5]; [VTD] 0.7 mM, 0.1 ml): 285 ± 39 min | onset, MOTOR ([5]; [VTD] 0.7 mM, 0.1 ml): 6 ± 2 min | Motor function inhibition compared with bupivacaine and lidocaine ([5]; rat sciatic nerve): more potent and longer acting inhibitor of motor function than either bupivacaine or lidocaine; also recorded: more potent and longer-acting inhibitor of motor function than either bupivacaine or lidocaine
